Here are results for one molecule from patent EP0022117A2, “Metoclopramid resinate and medicament containing it” (Trenker, Ady, priority 1979, dated 1981).

Series [1] is described as follows: plasma half-life in the rat. It counts as in vivo. The note with it: chez le rat, read-out: demi-vie plasmatique.
Series [2] can be described thus: plasma half-life in the dog. The series is classed as in vivo. The note with it: chez le chien, read-out: demi-vie plasmatique.

As to `CCN(CC)CCNC(=O)c1cc(Cl)c(N)cc1OC` [Metoclopramide], the half-life in series [1] and in series [2] was 1 to 1.5 h in each case.
